These results are taken from patent publication US20100056508A1, “AMINE DERIVATIVES AND THEIR USE IN BETA-2-ADRENORECEPTOR MEDIATED DISEASES” (ASTRAZENECA AB, priority 2006, published 2010).

Structures can show the parent of a compound that is named as a salt.

This assay has as its target T1, recombinant human α1D receptor (Homo sapiens, UniProt P25100).
T1 construct: expressed in transfected cells; host or cells: human embryonic kidney 293 cells (HEK93 [sic]), membranes
T1 sequence (P25100 1-572): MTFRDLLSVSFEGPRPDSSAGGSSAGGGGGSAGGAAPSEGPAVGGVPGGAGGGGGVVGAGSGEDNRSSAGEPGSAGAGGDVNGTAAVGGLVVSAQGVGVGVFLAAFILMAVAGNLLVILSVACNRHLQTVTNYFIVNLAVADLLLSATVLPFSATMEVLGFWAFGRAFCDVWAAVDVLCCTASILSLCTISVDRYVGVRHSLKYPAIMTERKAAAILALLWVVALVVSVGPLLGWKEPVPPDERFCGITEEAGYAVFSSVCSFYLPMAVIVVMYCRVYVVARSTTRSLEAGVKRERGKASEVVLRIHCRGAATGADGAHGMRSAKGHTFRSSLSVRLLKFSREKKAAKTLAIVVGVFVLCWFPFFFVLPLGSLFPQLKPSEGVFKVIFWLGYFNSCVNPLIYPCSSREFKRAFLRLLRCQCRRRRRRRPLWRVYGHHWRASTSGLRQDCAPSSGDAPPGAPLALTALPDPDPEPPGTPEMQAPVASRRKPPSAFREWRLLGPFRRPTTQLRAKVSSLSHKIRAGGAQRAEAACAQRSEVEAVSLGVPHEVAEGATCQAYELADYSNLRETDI
The assay can be described thus: Adrenergic α1D selectivity assay, [3H]-prazosin binding to membranes. Conditions: inhibition of [3H]-prazosin binding, HEK cell membranes, read-out: α1 bind pIC50 (converted). In a few lines:
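Competition binding on HEK293 membranes with recombinant human α1D receptor, 0.3 nM [3H]-prazosin, 50 mM HEPES/1 mM EDTA pH 7.4, 2 h at room temperature; filtration and scintillation counting. Non-specific binding defined with 10 μM BMY7378. pIC50 from four-parameter logistic fit of specific-binding inhibition.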
In the case of `CCCC[C@@H](C)N(CCNCCc1ccc(O)c2c1OCC(=O)N2)C(=O)CCNCCc1ccc(F)c(C)c1` [Example 47, (R)-3-(4-Fluoro-3-methylphenethylamino)-N-(hexan-2-yl)-N-(2-(2-(5-hydroxy-3-oxo-3,4-dihydro-2H-benzo[b][1,4]oxazin-8-yl)ethylamino)ethyl)propanamide bis(trifluoroacetate)], the IC50 was 79.4 nM.
For `CC[C@@H](C)N(CCNCCc1ccc(O)c2c1OCC(=O)N2)C(=O)CCNCCc1ccc(Cl)c(Cl)c1` [Example 58, (R)—N-sec-Butyl-3-(3,4-dichlorophenethylamino)-N-(2-(2-(5-hydroxy-3-oxo-3,4-dihydro-2H-benzo[b][1,4]oxazin-8-yl)ethylamino)ethyl)propanamide dihydrochloride], the IC50 was 100 nM.
Then `O=C1COc2c(CCNCCN(C(=O)CCOCCc3cccc(Cl)c3)C3CCCCC3)ccc(O)c2N1` [Example 77, 3-(3-Chlorophenethoxy)-N-cyclohexyl-N-(2-(2-(5-hydroxy-3-oxo-3,4-dihydro-2H-benzo[b][1,4]oxazin-8-yl)ethylamino)ethyl)propanamide trifluoroacetate], with 794 nM.
With `O=C(CCNCCc1ccc(Cl)cc1)N(CCNCCc1ccc(O)c2[nH]c(=O)ccc12)C1CCCCC1` [Example 14, 3-(4-Chlorophenethylamino)-N-cyclohexyl-N-(2-(2-(8-hydroxy-2-oxo-1,2-dihydroquinolin-5-yl)ethylamino)ethyl)propanamide bis(trifluoroacetate)] the figure was 501 nM.
With `O=C1COc2c(CCNCCN(C(=O)CCNCCc3cc(F)cc(Cl)c3)C3CCCCCC3)ccc(O)c2N1` [Example 66, 3-(3-Chloro-5-fluorophenethylamino)-N-cycloheptyl-N-(2-(2-(5-hydroxy-3-oxo-3,4-dihydro-2H-benzo[b][1,4]oxazin-8-yl)ethylamino)ethyl)propanamide bis(trifluoroacetate)] the figure was 398 nM; with `O=C1COc2c(CCNCCN(C(=O)CCNCCc3cccc(Cl)c3Cl)C3CCCCC3)ccc(O)c2N1` [Example 29, N-Cyclohexyl-3-(2,3-dichlorophenethylamino)-N-(2-(2-(5-hydroxy-3-oxo-3,4-dihydro-2H-benzo[b][1,4]oxazin-8-yl)ethylamino)ethyl)propanamide bis(trifluoroacetate)], 126 nM.
On to `CC(C)[C@@H](C)N(CCNCCc1ccc(O)c2[nH]c(=O)ccc12)C(=O)CCOCCc1ccccc1.Cl` [Example 80, (R)—N-(2-(2-(8-Hydroxy-2-oxo-1,2-dihydroquinolin-5-yl)ethylamino)ethyl)-N-(3-methylbutan-2-yl)-3-phenethoxypropanamide hydrochloride], for which the IC50 was 501 nM.
With `CCCC[C@@H](C)N(CCNCCc1ccc(O)c2c1OCC(=O)N2)C(=O)CCNCCc1cc(F)cc(F)c1` [Example 51, (R)-3-(3,5-Difluorophenethylamino)-N-(hexan-2-yl)-N-(2-(2-(5-hydroxy-3-oxo-3,4-dihydro-2H-benzo[b][1,4]oxazin-8-yl)ethylamino)ethyl)propanamide bis(trifluoroacetate)] the figure was 316 nM; with `CCCC[C@@H](C)N(CCNCCc1ccc(O)c2c1OCC(=O)N2)C(=O)CCNCCc1cccc(Cl)c1` [Example 44, (R)-3-(3-Chlorophenethylamino)-N-(hexan-2-yl)-N-(2-(2-(5-hydroxy-3-oxo-3,4-dihydro-2H-benzo[b][1,4]oxazin-8-yl)ethylamino)ethyl)propanamide bis(trifluoroacetate)], 50.1 nM.
Then `CCCC[C@@H](C)N(CCNCCc1ccc(O)c2c1OCC(=O)N2)C(=O)CCNCCc1ccccc1Cl` [Example 46, (R)-3-(2-Chlorophenethylamino)-N-(hexan-2-yl)-N-(2-(2-(5-hydroxy-3-oxo-3,4-dihydro-2H-benzo[b][1,4]oxazin-8-yl)ethylamino)ethyl)propanamide bis(trifluoroacetate)], with 79.4 nM; and `CCCC[C@@H](C)N(CCNCCc1ccc(O)c2c1OCC(=O)N2)C(=O)CCNCCc1ccc(Cl)cc1` [Example 45, (R)-3-(4-Chlorophenethylamino)-N-(hexan-2-yl)-N-(2-(2-(5-hydroxy-3-oxo-3,4-dihydro-2H-benzo[b][1,4]oxazin-8-yl)ethylamino)ethyl)propanamide bis(trifluoroacetate)], with 251 nM.
With `CCOc1cccc(CCNCCC(=O)N(CCNCCc2ccc(O)c3[nH]c(=O)ccc23)C2CCCCCC2)c1` [Example 11, N-Cycloheptyl-3-(3-ethoxyphenethylamino)-N-(2-(2-(8-hydroxy-2-oxo-1,2-dihydroquinolin-5-yl)ethylamino)ethyl)propanamide bis(trifluoroacetate)] the figure was 316 nM.
Turning to `CCCC[C@@H](C)N(CCNCCc1ccc(O)c2c1OCC(=O)N2)C(=O)CCNCCc1ccc(Cl)c(Cl)c1` [Example 55, (R)-3-(3,4-Dichlorophenethylamino)-N-(hexan-2-yl)-N-(2-(2-(5-hydroxy-3-oxo-3,4-dihydro-2H-benzo[b][1,4]oxazin-8-yl)ethylamino)ethyl)propanamide bis(trifluoroacetate)], the IC50 is 251 nM.
Then `CCCC[C@@H](C)N(CCNCCc1ccc(O)c2c1OCC(=O)N2)C(=O)CCNCCc1cc(F)ccc1F` [Example 54, (R)-3-(2,5-Difluorophenethylamino)-N-(hexan-2-yl)-N-(2-(2-(5-hydroxy-3-oxo-3,4-dihydro-2H-benzo[b][1,4]oxazin-8-yl)ethylamino)ethyl)propanamide bis(trifluoroacetate)], with 79.4 nM; and `O=C1COc2c(CCNCCN(C(=O)CCNCCc3cccc(F)c3F)C3CCCCC3)ccc(O)c2N1` [Example 36, N-Cyclohexyl-3-(2,3-difluorophenethylamino)-N-(2-(2-(5-hydroxy-3-oxo-3,4-dihydro-2H-benzo[b][1,4]oxazin-8-yl)ethylamino)ethyl)propanamide bis(trifluoroacetate)], with 398 nM.
Then `CCCC[C@@H](C)N(CCNCCc1ccc(O)c2c1OCC(=O)N2)C(=O)CCNCCc1ccc(F)c(F)c1` [Example 52, (R)-3-(3,4-Difluorophenethylamino)-N-(hexan-2-yl)-N-(2-(2-(5-hydroxy-3-oxo-3,4-dihydro-2H-benzo[b][1,4]oxazin-8-yl)ethylamino)ethyl)propanamide bis(trifluoroacetate)], with 200 nM; and `O=C1COc2c(CCNCCN(C(=O)CCNCCc3ccc(F)c(F)c3)C3CCCCC3)ccc(O)c2N1` [Example 42, N-Cyclohexyl-3-(3,4-difluorophenethylamino)-N-(2-(2-(5-hydroxy-3-oxo-3,4-dihydro-2H-benzo[b][1,4]oxazin-8-yl)ethylamino)ethyl)propanamide bis(trifluoroacetate)], with 200 nM; and `CCCC[C@@H](C)N(CCNCCc1ccc(O)c2c1OCC(=O)N2)C(=O)CCNCCc1cccc(F)c1F` [Example 53, (R)-3-(2,3-Difluorophenethylamino)-N-(hexan-2-yl)-N-(2-(2-(5-hydroxy-3-oxo-3,4-dihydro-2H-benzo[b][1,4]oxazin-8-yl)ethylamino)ethyl)propanamide bis(trifluoroacetate)], with 200 nM.
With `O=C1COc2c(CCNCCN(C(=O)CCNCCc3ccc(C(=O)O)cc3)C3CCCCC3)ccc(O)c2N1` [Example 43, 4-(2-(3-(Cyclohexyl(2-(2-(5-hydroxy-3-oxo-3,4-dihydro-2H-benzo[b][1,4]oxazin-8-yl)ethylamino)ethyl)amino)-3-oxopropylamino)ethyl)benzoic acid bis(trifluoroacetate)] the figure was > 10000 nM.
Take `CCCC[C@@H](C)N(CCNCCc1ccc(O)c2c1OCC(=O)N2)C(=O)CCNCCc1ccc(Cl)s1` [Example 49, (R)-3-(2-(5-Chlorothiophen-2-yl)ethylamino)-N-(hexan-2-yl)-N-(2-(2-(5-hydroxy-3-oxo-3,4-dihydro-2H-benzo[b][1,4]oxazin-8-yl)ethylamino)ethyl)propanamide bis(trifluoroacetate)]: the IC50 was 316 nM.
With `O=C1COc2c(CCNCCN(C(=O)CCNCCc3ccc(F)c(Cl)c3)C3CCCCC3)ccc(O)c2N1` [Example 37, 3-(3-Chloro-4-fluorophenethylamino)-N-cyclohexyl-N-(2-(2-(5-hydroxy-3-oxo-3,4-dihydro-2H-benzo[b][1,4]oxazin-8-yl)ethylamino)ethyl)propanamide bis(trifluoroacetate)] the figure was 158 nM; with `O=C1COc2c(CCNCCN(C(=O)CCNCCc3ccccc3)C3CCCCCC3)ccc(O)c2N1` [Example 24, N-Cycloheptyl-N-(2-(2-(5-hydroxy-3-oxo-3,4-dihydro-2H-benzo[b][1,4]oxazin-8-yl)ethylamino)ethyl)-3-(phenethylamino)propanamide bis(trifluoroacetate)], 50.1 nM; with `O=C1COc2c(CCNCCN(C(=O)CCNCCc3ccc(Cl)c(Cl)c3)C3CCCCC3)ccc(O)c2N1` [Example 30, N-Cyclohexyl-3-(3,4-dichlorophenethylamino)-N-(2-(2-(5-hydroxy-3-oxo-3,4-dihydro-2H-benzo[b][1,4]oxazin-8-yl)ethylamino)ethyl)propanamide bis(trifluoroacetate)], 251 nM.
